Measurements reported in patent US8653132B2, “Phosphaplatins and their use in pharmaceutical compositions” (Ohio University, priority 2007, dated 2014).
Read-outs that look alike come from different tables or passages of the source.

Experiments:
[1] = test system: A2780/C30 cisplatin-resistant ovarian cell line; assay: Clonogenic assay, cisplatin/carboplatin-resistant C30; assay type: cell-based, human; settings: 1 hour drug treatment, 1 week colony formation
Experimental: A cisplatin-resistant Ovarian cell line (C30) (Hamaguchi, et al., 1993), obtained from Dr. Thomas Hamilton (Fox Chase Cancer Center, Philadelphia, Pa.), was treated with the monomeric platinum complexes of the present invention (shown in FIG. 2). This cell line is also cross resistant to carboplatin. Cells were cultured on monolayer using RPMI 1640 supplemented with 10% fetal bovine serum, 2 mM glutamine, 0.25 units/mL insulin and penicillin/streptomycin in a 37 degrees C. incubator continuously gassed with 5% CO2. Cells were subcultured using 0.025% trypsin in HBSS to maintain cells in exponential growth.
IC50 values were determined using a clonogenic assay. Briefly, 500 C30 cells from a single cell suspension were plated onto 60 mm Petri plates 24 hours before drug treatment to permit cell attachment. On the day of drug treatment, the medium was decanted and replaced with the drug and these treated cells were placed back into the 37 degrees C. incubator for 1 hour. Triplicate plates were set up for each drug concentration. After the one hour drug treatment, the drug containing medium was decanted and replaced with fresh medium. These plates were returned to the 37 degrees C. incubator for 1 week for colony formation. Colonies were fixed and stained using 2% crystal violet in absolute methanol. Colonies containing more than 50 cells were scored. The number of scored colonies from the triplicate plates was averaged and this number was divided by the number of cells plated to obtain a value for the fraction of cells forming colonies. These values for fraction of cells forming colonies were then corrected for plating efficiency by dividing them by the number of cells forming colonies in plates that were not treated with drug.

[2] = test system: UMSCC10b (Cisplatin-sensitive) cells; assay: Cytotoxicity in head and neck cancer cells, cisplatin-sensitive; assay type: cell-based, human
Experimental: (§1) The UMSCC10b (Cisplatin-sensitive) and UMSCC10b/15s (Cisplatin-resistant) cell lines derived from human head and neck squamous cell cancer were lines were obtained from Dr. Stephen B. Howell of the University of California, Dan Diego. Cells were cultured in 1640 RPMI with 10% fetal bovine serum, 100 units/ml penicillin and 100 μg/m1 of streptomycin. Cells were seeded into 24-well plates with approximately 20,000 cells/500 μl of media in each well plate. Cells were exposed to dach-2 with variable concentrations ranging from 1.12 μM to maximum of 72 μM. Stock solutions of dach-2 complex were prepared and aliquots of these solutions were added to make those effective concentrations. Cells were then allowed to grow for 72 hours. Twelve different concentrations were used in this study. Each concentration had one control for a total of 12 controls.

[3] = test system: UMSCC10b/15s (Cisplatin-resistant) cells; assay: Cytotoxicity in head and neck cancer cells, cisplatin-resistant; assay type: cell-based, human
Experimental: as §1

guanine base = assay: Guanine base binding by proton NMR; settings: cisplatin after 48 hours, am-2 96 hours, dach-2 106 hours
Experimental: FIG. 12 is a comparison of guanine base binding (the predominant DNA binding site of cisplatin) among cisplatin (bottom), am-2 (middle), and dach-2 (top) by proton NMR spectroscopy. […] The bottom spectrum was recorded after 48 hours. The middle and top spectra were recorded after 96 and 106 hours, respectively.
(§2) Proton NMR spectroscopic experiments were conducted on a Bruker 500 MHz NMR instrument in 99% (atom) D2O with a water suppression pulse sequence. Samples contained cisplatin (2.0 mM) or pyrodach-2 (2.0 mM) and nucleotides (5′-dGMP, 5′-dAMP, dGpG (5.0 mM)), and, single- and double stranded DNA (calf thymus, 5.0 mM) at pH 7.0 maintained by phosphate and carbonate buffers (10-20 mM). Reactions of cisplatin (0.25 mM) and pyrodach-2 (0.25 mM) with a synthetic 25-mer: 5′-[…]-3′ (SEQ ID NO: 1) (0.25 mM) were also performed under identical conditions. Reactions were carried out up to 7 days, and ^1H and ^31P NMR spectra were recorded at regular time intervals. Usually, a pulse width of 5 μs with a 1.0 s repetition delay was used for the measurements. Typically, a sweepwidth of 10,000 Hz and 32 K data points were selected to collect the Free Induction Decays. A line broadening factor of 1 Hz was for applied Fourier transformation. The chemical shifts, with reference to H—O-D peak, are at 4.67 ppm.

[4] = test system: calf-thymus DNA, oligonucleotide, dGpG, 5'-dGMP and 5'-dAMP; assay: Platinum binding to DNA and nucleotides by NMR; settings: 1H NMR, up to seven days
Experimental: In the associated experiment, dach-2 was allowed to react with double-stranded calf-thymus DNA, a synthetic oligonucleotide (5′-[…]-3′; SEQ ID NO:1), a dinucleotide (dGpG), and nucleotide monophosphates (5′-dGMP and 5′-dAMP) at concentrations as much as 250-times higher than those of cellular doses. The extent of DNA binding was monitored by ^1H NMR spectroscopy. In parallel, similar reactions with cisplatin were conducted under identical conditions.
as §2, with “The chemical shifts, with reference to H—O-D peak, are at 4.67 ppm.” left out

TNFRSF-10B = assay: Apoptotic gene array, real-time PCR: TNFRSF-10B; assay type: cell-based; settings: preliminary
Experimental: (§3) Preliminary gene expression experiments involving complexes of the present invention as compared to cisplatin (data not shown) were carried out with an apoptotic array containing 84 genes that includes the BCL2 superfamily, both pro- and anti-apoptotic, caspases, the BIR-family, TNF receptor […] factors, p53 and its congeners, and fas associated members by real-time PCR. A closer look at the two sets of gene expressions clearly indicates a number of differences in the expression patterns. […] Specifically, fas was over-expressed by 6-fold compared to the control, and TNFRS genes such as TNFRSF-10B was overexpressed by 2-3 folds over controls. These latter receptor factors belong to the fas superfamily.

BAX = assay: Apoptotic gene array, real-time PCR: BAX; assay type: cell-based; settings: preliminary
Experimental: as §3

A2780/C30 cells = assay: Cellular accumulation of platinum by atomic absorption, A2780/C30; assay type: cell-based, human; settings: at its IC50 value

NC1CCCCC1N.O=P([O-])(O)OP(=O)([O-])O.[Pt+2] [dach-2, (Trans-1,2-cyclohexanediamine)(dihydrogenpyrophosphato)platinum(II)]
IC50 [1]: 48 ± 5 µM
IC50 ([2]; 72 hours growth, estimated, read-out: IC50 for UMSCC10b (Cisplatin-sensitive)): < 1 µM
IC50 ([2]; FIG. 9 legend, read-out: IC50 cisplatin-sensitive head and neck cancer cells): < 1 µM
IC50 ([3]; 72 hours growth, read-out: IC50 for UMSCC10b/15s (Cisplatin-resistant)): 5 µM
IC50 ([3]; FIG. 9 legend, read-out: IC50 cisplatin-resistant head and neck cancer cells): < 5 µM
guanine base binding (H8 signal) (guanine base): exhibits a signal for the free guanine base at 8.05 ppm
adduct formation with nucleotides [4]: no detectable NMR signals
TNFRSF-10B overexpression over controls (TNFRSF-10B): 2-3 folds
BAX overexpression (BAX): 2-3 folds
platinum accumulation in the resistant cell lines (A2780/C30 cells): 1.4 ng Pt/10^6 cells
